Counter-ions that a name gives are not always drawn. Like-named read-outs stand apart in the source and are kept apart here.
Columns and labels:
human eosinophils = experiment: Binding inhibitory test of chemokine ([125I]-eotaxin) to human eosinophils; settings: 50 pmol/L [125I]-eotaxin, 2x10^5 eosinophils, 25°C, 1 hr; read-out: IC50 (concentration of test compound necessary for decreasing binding of [125I]-eotaxin to human eosinophils by 50%)
Description: Binding Inhibitory Test of Chemokine to Human Eosinophils
Human eosinophils were separated by the CD16 negative selection method from anticoagulation-treated peripheral blood of healthy subject (e.g., J. Immunol. Methods, vol. 145, pages 105-110, 1991). The separated eosinophils (2×10^5 cells), 50 pmol/L[^125I]-eotaxin (2000 Ci/mmoL, manufactured by Amersham Pharmacia Biotech) and a test compounds were mixed in 0.1 mL of binding buffer (50 mmol/L HEPES, 1 mmol/L CaCl2, 5 mmol/L MgCl2, 0.5% bovine serum albumin (BSA), 0.1% sodium azide, pH 7.4), and the mixture was incubated in a multiscreen plate (manufactured by MILLIPORE) at 25° C. for 1 hr. After incubation, the reaction mixture in the multiscreen plate was filtered by vacuum manifold, and washed with 0.6 mL of a cold washing buffer (50 mmol/L HEPES, 1 mmol/L CaCl2, 5 mmol/L MgCl2, 0.5 mol/L NaCl, 0.1% sodium azide, pH 7.4), and the radioactivity maintained on the filter was measured. […] The IC50 values (concentration of test compound necessary for decreasing binding of [^125I]-eotaxin to human eosinophils by 50%) of some of the compounds of the present invention were as follows.

CCR3 = target: T1, CCR3 (Homo sapiens, UniProt P51677); experiment: Effect on intracellular calcium concentration in eosinophils upon CCL11 stimulation; format: cell-based; settings: peripheral blood eosinophils of healthy subject, agonist CCL11 1.0 nmol/L, compound 3 min before stimulation, Fura-2 AM; read-out: IC50 (50% suppression of the increase in the intracellular calcium concentration)
T1 construct: Eosinophils separated from peripheral blood of healthy subject; endogenous in cells; host or cells: eosinophils separated from peripheral blood of healthy subject
T1 sequence (P51677 1-355): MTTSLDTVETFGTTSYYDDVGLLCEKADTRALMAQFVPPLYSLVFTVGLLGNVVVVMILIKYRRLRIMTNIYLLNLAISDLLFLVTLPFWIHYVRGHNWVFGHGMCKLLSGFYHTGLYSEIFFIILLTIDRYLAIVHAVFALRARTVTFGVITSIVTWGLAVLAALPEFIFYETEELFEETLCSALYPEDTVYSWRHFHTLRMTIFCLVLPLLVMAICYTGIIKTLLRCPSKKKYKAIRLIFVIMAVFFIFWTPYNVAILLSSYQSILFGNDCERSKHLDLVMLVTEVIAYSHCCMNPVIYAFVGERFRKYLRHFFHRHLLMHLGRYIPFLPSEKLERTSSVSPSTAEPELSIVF
Description: Effect on Intracellular Calcium Concentration
The effect of the compound of the present invention on intracellular calcium mobilization in peripheral blood eosinophils of healthy subject upon CCL11 stimulation was examined by the following method.
Eosinophils separated from peripheral blood of healthy subject were suspended in 0.5% bovine serum albumin-containing phosphate buffered saline, and incubated at 37° C. for 45 min in the presence of 5 μmol/L of Fura-2 AM (manufactured by DOJINDO LABORATORIES).
After incubation, the cells were washed 3 times with a measurement buffer (10 mmol/L HEPES, and 0.5% bovine serum albumin-containing hanks' balanced salt solution) to remove Fura-2 AM that was not incorporated into the cells.
Finally, the cells were adjusted to 1×10^6 cells/mL with the measurement buffer and preserved in a dark place until measurement. The intracellular calcium was measured using FDSS3000 manufactured by Hamamatsu Photonics K.K. In other words, the cell suspension (0.1 mL) loaded with Fura-2 AM was placed in a 96 well plate for measurement, the fluorescence intensity to the excitation light at wavelengths 340 nm and 380 nm was measured by FDSS3000, the ratio of the fluorescence intensity to the excitation light at these two wavelengths was determined, based on which the intracellular calcium concentration was calculated. As the agonist, used was CCL11 (1.0 nmol/L), which is a CCR3 selective ligand, and the antagonistic activity was determined as 50% suppression rate (IC50 value) of the increase in the intracellular calcium concentration, when eosinophils were treated with various concentrations of the compound of the present invention at 3 min before agonist stimulation.

[1] = tested on: mouse ovalbumin (OVA) induced allergic and biphasic ear edema; experiment: Antigen (OVA) induced allergic and biphasic ear edema model; format: in vivo; settings: male BALB/c mice, oral once a day from 2 days before induction, 3 or 10 mg/kg tested
Description: 3: Effect on Antigen Induced Allergic and Biphasic Ear Edema Model
The in vivo effect of the compound of the present invention was examined using a mouse ovalbumin (OVA) induced allergic and biphasic ear edema model. The model was prepared according to the method of Sugawara et al. (Allergy & Clinical Immunology International, Supplement No. 2, P 785, 2000). In other words, male BALB/c mice were immunized by intraperitoneal injection with 10 μg of OVA and 1 mg of aluminum hydroxide gel (Alum). At 14 days after immunization, OVA (5 μg) were subcutaneously injected to the both ears of the mouse, whereby ear edema was induced. The thickness of the ears was measured using a dial sickness gauge immediately before subcutaneous injection and 1 and 24 hrs after subcutaneous injection of OVA. The compound of the present invention was suspended in a vehicle, 0.5% hydroxypropylmethyl cellulose solution, and orally administered at 3 mg/kg or 10 mg/kg once a day using an orally gavage needle from 2 days before ear edema induction.

[2] = ear thickness 1 hr after OVA, read-out: Dose that showed a significant suppressive action vs vehicle, Immediate phase
[3] = ear thickness 24 hrs after OVA, read-out: Dose that showed a significant suppressive action vs vehicle, Late phase

SMILES | IC50 (human eosinophils) | IC50 (CCR3) | minimal effective dose [1, 2] | minimal effective dose [1, 3]
Nc1cccc(-c2csc(SCC(=O)NC[C@H]3CN(Cc4ccc(Cl)c(Cl)c4)CCO3)n2)c1 [Example 9, (2S)-[4-(3-aminophenyl)thiazol-2-ylthio]-N-{[4-(3,4-dichlorobenzyl)morpholin-2-yl]methyl}acetamide] | 12.7 nM |  |  | 
O=C(CSc1nc(-c2ccncc2)cs1)NC[C@H]1CN(Cc2ccc(Cl)c(Cl)c2)CCO1 [Example 11, (2S)-N-{[4-(3,4-dichlorobenzyl)morpholin-2-yl]methyl}-[4-(pyridin-4-yl)thiazol-2-ylthio]acetamide] | 0.8 nM |  |  | 
NC(=O)c1cc(-c2csc(SCC(=O)NC[C@H]3CN(Cc4ccc(Cl)c(Cl)c4)CCO3)n2)ccc1O [Example 10, (2S)-[4-(3-carbamoyl-4-hydroxyphenyl)thiazol-2-ylthio]-N-{[4-(3,4-dichlorobenzyl)morpholin-2-yl]methyl}acetamide] | 2.4 nM |  |  | 
COc1ccc(-c2csc(SCC(=O)NC[C@H]3CN(Cc4ccc(Cl)c(Cl)c4)CCO3)n2)cc1OC [Example 13, (2S)-N-{[4-(3,4-dichlorobenzyl)morpholin-2-yl]methyl}-[4-(3,4-dimethoxyphenyl)thiazol-2-ylthio]acetamide] | 0.4 nM |  |  | 
O=C(O)Cc1csc(SCC(=O)NC[C@H]2CN(Cc3ccc(Cl)c(Cl)c3)CCO2)n1 [Example 2, (2S)-[4-(carboxymethyl)thiazol-2-ylthio]-N-{[4-(3,4-dichlorobenzyl)morpholin-2-yl]methyl}acetamide] | 2.4 nM | 1.8 nM | 3 mg/kg | 3 mg/kg
NC(=O)c1csc(SCC(=O)NC[C@H]2CN(Cc3ccc(Cl)c(Cl)c3)CCO2)n1 [Example 15, (2S)-(4-carbamoylthiazol-2-ylthio)-N-{[4-(3,4-dichlorobenzyl)morpholin-2-yl]methyl}acetamide] | 0.4 nM | 1.6 nM |  | 

The next lines start with results.

IC50 (human eosinophils) | IC50 (CCR3) | SMILES | minimal effective dose [1, 2] | minimal effective dose [1, 3]
2.3 nM |  | Nc1ccc2c(c1)-c1nc(SCC(=O)NC[C@H]3CN(Cc4ccc(Cl)c(Cl)c4)CCO3)sc1C2 [Example 27, (2S)-(5-amino-8H-indeno[1,2-d]thiazol-2-ylthio)-N-{[4-(3,4-dichlorobenzyl)morpholin-2-yl]methyl}acetamide] |  | 
0.9 nM | 2.5 nM | NC(=O)CNC(=O)c1csc(SCC(=O)NC[C@H]2CN(Cc3ccc(Cl)c(Cl)c3)CCO2)n1 [Example 17, (2S)-{4-[(2-amino-2-oxoethyl)aminocarbonyl]thiazol-2-ylthio}-N-{[4-(3,4-dichlorobenzyl)morpholin-2-yl]methyl}acetamide] | 3 mg/kg | 3 mg/kg
1 nM | 0.8 nM | Cc1nc(-c2csc(SCC(=O)NC[C@H]3CN(Cc4ccc(Cl)c(Cl)c4)CCO3)n2)no1 [Example 23, (2S)-N-{[4-(3,4-dichlorobenzyl)morpholin-2-yl]methyl}-[4-(5-methyl-1,2,4-oxadiazol-3-yl)thiazol-2-ylthio]acetamide hydrochloride] |  | 
34.3 nM | 4.9 nM | O=C(CSc1ccc(C(=O)O)cc1)NC[C@H]1CN(Cc2ccc(Cl)c(Cl)c2)CCO1 [Example 37, (2S)-(4-carboxyphenylthio)-N-{[4-(3,4-dichlorobenzyl)morpholin-2-yl]methyl}acetamide] | 3 mg/kg | 3 mg/kg

From patent US7935700B2, “Morpholine compound” (Mitsubishi Tanabe Pharma Corporation, priority 2004, dated 2011)
